Results reported in patent US12240862B2, “Inhibitors of peptidylarginine deiminases” (Gilead Sciences, Inc., priority 2020, dated 2025).

Biological target: T1, human PAD4 (Homo sapiens, UniProt Q9UM07)
T1 construct: human PAD4 (NM_012387), A2P663, was PCR amplified; His-SUMO (N, cleaved yes); made in house; host or cells: E. coli BL21(DE3)
Assay: In vitro PAD4 BAEE biochemical assay
Settings: human PAD4, BAEE substrate; 5 nM PAD4, 2 mM calcium chloride, 3 mM BAEE; geometric mean of multiple experiments
Procedure, shortened: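 Ammonia release from BAEE deimination monitored by o-phthalaldehyde amine coupling (1 h, 25 °C) after EDTA stop. Final conditions: 5 nM tag-free recombinant human PAD4 (E. coli), 2 mM CaCl2, 3 mM BAEE, pH 7.6 MOPS with DTT; 30 min compound preincubation, then 2 h reaction at 25 °C.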

T1 sequence (Q9UM07 2-663): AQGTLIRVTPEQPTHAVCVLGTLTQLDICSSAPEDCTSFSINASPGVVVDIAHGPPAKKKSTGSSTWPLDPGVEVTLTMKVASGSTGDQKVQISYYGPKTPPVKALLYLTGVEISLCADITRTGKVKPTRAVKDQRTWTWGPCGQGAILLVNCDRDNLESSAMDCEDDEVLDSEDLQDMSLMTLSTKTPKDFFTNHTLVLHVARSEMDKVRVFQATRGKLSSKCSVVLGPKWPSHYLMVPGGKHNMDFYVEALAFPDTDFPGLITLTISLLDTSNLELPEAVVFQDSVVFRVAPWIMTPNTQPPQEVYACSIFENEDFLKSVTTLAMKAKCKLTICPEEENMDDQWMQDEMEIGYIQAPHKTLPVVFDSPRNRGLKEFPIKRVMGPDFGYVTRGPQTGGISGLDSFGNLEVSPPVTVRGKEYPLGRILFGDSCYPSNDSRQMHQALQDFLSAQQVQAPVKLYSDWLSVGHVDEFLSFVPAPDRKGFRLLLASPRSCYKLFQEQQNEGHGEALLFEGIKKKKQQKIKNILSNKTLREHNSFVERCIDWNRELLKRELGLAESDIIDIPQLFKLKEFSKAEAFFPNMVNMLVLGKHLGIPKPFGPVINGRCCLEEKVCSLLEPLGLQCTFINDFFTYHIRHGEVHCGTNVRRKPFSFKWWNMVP

Structure (SMILES) | IC50 [µM]
COc1cc(C(=O)N2C[C@H](N)CC[C@@H]2C)cc2nc(-c3cc4ccc(-c5c(C)nn(CC(N)=O)c5C)nc4n3CC3CC3)c(C)n12 [Example 609, 2-[4-[2-[7-[(2~{S}, 5~{R})-5-amino-2-methylpiperidine-1-carbonyl]-5-methoxy-3-methylimidazo [1,2-a]pyridin-2-yl]-1-(cyclopropylmethyl)pyrrolo [2,3-b]pyridin-6-yl]-3,5-dimethylpyrazol-1-yl]acetamide] | 0.711
COc1cc(C(=O)N2[C@H]3CC[C@@H]2[C@H](N)C3)cc2nc(-c3cc4ccc([C@@H](C)NC(=O)C(C)(C)C)nc4n3CC34CC(C3)C4)c(C3CC3)n12 [Example 486, N—((R)-1-(2-(7-((1R,2R,4S)-2-amino-7-azabicyclo[2.2.1]heptane-7-carbonyl)-3-cyclopropyl-5-methoxyimidazo[1,2-a]pyridin-2-yl)-1-(bicyclo[1.1.1]pentan-1-ylmethyl)-1H-pyrrolo[2,3-b]pyridin-6-yl)ethyl)pivalamide] | 0.666
COc1cc(C(=O)N2CCC[C@@H](N)C2)cc2nc(-c3cc4ccc(C(C)C)nc4n3CC3CC3)c(C)n12 [Example 608, [(3~{R})-3-aminopiperidin-1-yl]-[2-[1-(cyclopropylmethyl)-6-propan-2-ylpyrrolo [2,3-b]pyridin-2-yl]-5-methoxy-3-methylimidazo [1,2-a]pyridin-7-yl] methanone] | 0.544
COc1cc(C(=O)N2[C@H]3CC[C@@H]2[C@H](N)C3)cc2nc(-c3cc4ccc([C@@H](C)NC(=O)Nc5ccccc5)nc4n3CC3CC3)c(C)n12 [Example 239, 1-[(1~{R})-1-[2-[7-[(1~{R},2~{R},4~{S})-2-amino-7-azabicyclo[2.2.1]heptane-7-carbonyl]-5-methoxy-3-methylimidazo [1,2-a]pyridin-2-yl]-1-(cyclopropylmethyl)pyrrolo [2,3-b]pyridin-6-yl]ethyl]-3-phenylurea] | 0.0817
COc1cc(C(=O)N2[C@H]3CC[C@@H]2[C@H](N)C3)cc2nc(-c3cc4ccc(N5CCCC(c6ccccc6)S5(=O)=O)nc4n3CC3CC3)c(C)n12 (stereo partly shown) [Example 469, [(1~{R},2~{R},4~{S})-2-amino-7-azabicyclo [2.2.1]heptan-7-yl]-[2-[1-(cyclopropylmethyl)-6-(1,1-dioxo-6-phenylthiazinan-2-yl)pyrrolo[2,3-b]pyridin-2-yl]-5-methoxy-3-methylimidazo[1,2-a]pyridin-7-yl]methanone] | 0.781
COc1cc(C(=O)N2CCC[C@@H](N)C2)cc2nc(-c3cc4ccc(C(NC(C)=O)C5CC5)nc4n3CC3CC3)c(C)n12 (stereo partly drawn) [Example 194, N-((2-(7-((R)-3-aminopiperidine-1-carbonyl)-5-methoxy-3-methylimidazo[1,2-a]pyridin-2-yl)-1-(cyclopropylmethyl)-1H-pyrrolo[2,3-b]pyridin-6-yl)(cyclopropyl)methyl)acetamide] | 1.09
COc1cc(C(=O)N2C[C@@H]3CCN[C@@H]3C2)cc2nc(-c3cc4ccc([C@@H](C)NC(=O)C56CC(F)(C5)C6)nc4n3CC3CC3)c(C)n12 [Example 20, ~{N}-[(1~{R})-1-[2-[7-[(3~{a}~{S}, 6~{a}~{S})-2,3,3~{a}, 4,6,6~{a}-hexahydro-1~{H}-pyrrolo[3,4-b]pyrrole-5-carbonyl]-5-methoxy-3-methylimidazo[1,2-a]pyridin-2-yl]-1-(cyclopropylmethyl)pyrrolo[2,3-b]pyridin-6-yl]ethyl]-3-fluorobicyclo[1.1.1] pentane-1-carboxamide] | 3.86
COc1cc(C(=O)N2[C@H]3CC[C@@H]2[C@H](N)C3)cc2nc(-c3cc4ccc([C@@H](C)NC(=O)N(C)Cc5cccnc5)nc4n3CC3CC3)c(C)n12 [Example 222, 3-[(1~{R})-1-[2-[7-[(1~{R},2~{R},4~{S})-2-amino-7-azabicyclo[2.2.1]heptane-7-carbonyl]-5-methoxy-3-methylimidazo [1,2-a]pyridin-2-yl]-1-(cyclopropylmethyl)pyrrolo [2,3-b]pyridin-6-yl]ethyl]-1-methyl-1-(pyridin-3-ylmethyl)urea] | 0.02

Further lines, results first:

IC50 [µM] | Structure (SMILES)
0.13 | COc1cc(C(=O)N2[C@H]3CC[C@@H]2[C@H](N)C3)cc2nc(-c3cc4ccc(-c5cccnc5C)nc4n3CC3CC3)c(C)n12 [Example 575, ((1R,2R,4S)-2-amino-7-azabicyclo[2.2.1]heptan-7-yl)(2-(1-(cyclopropylmethyl)-6-(2-methylpyridin-3-yl)-1H-pyrrolo[2,3-b]pyridin-2-yl)-5-methoxy-3-methylimidazo[1,2-a]pyridin-7-yl)methanone]
0.111 | COc1cc(C(=O)N2[C@H]3CC[C@@H]2[C@H](N)C3)cc2nc(-c3cc4ccc([C@@H](C)NC(=O)N5CC(F)(F)C(F)(F)C5)nc4n3CC3CC3)c(C)n12 [Example 208, ~{N}-[(1~{R})-1-[2-[7-[(1~{R},2~{R},4~{S})-2-amino-7-azabicyclo[2.2.1]heptane-7-carbonyl]-5-methoxy-3-methylimidazo [1,2-a]pyridin-2-yl]-1-(cyclopropylmethyl)pyrrolo [2,3-b]pyridin-6-yl]ethyl]-3,3,4,4-tetrafluoropyrrolidine-1-carboxamide]
0.296 | COc1ccc(-c2ccc3cc(-c4nc5cc(C(=O)N6[C@H]7CC[C@@H]6[C@H](N)C7)cc(OC)n5c4C)n(CC4CC4)c3n2)c(C)n1 [Example 556, [(1~{R},2~{R},4~{S})-2-amino-7-azabicyclo [2.2.1]heptan-7-yl]-[2-[1-(cyclopropylmethyl)-6-(6-methoxy-2-methylpyridin-3-yl)pyrrolo[2,3-b]pyridin-2-yl]-5-methoxy-3-methylimidazo[1,2-a]pyridin-7-yl]methanone]
0.0385 | C=CCC(=O)N[C@H](C)c1ccc2cc(-c3nc4cc(C(=O)N5[C@H]6CC[C@@H]5[C@H](N)C6)cc(OC)n4c3C)n(CC3CC3)c2n1 [Example 64, ~{N}-[(1~{R})-1-[2-[7-[(1~{R},2~{R},4~{S})-2-amino-7-azabicyclo[2.2.1]heptane-7-carbonyl]-5-methoxy-3-methylimidazo [1,2-a]pyridin-2-yl]-1-(cyclopropylmethyl)pyrrolo[2,3-b]pyridin-6-yl]ethyl]but-3-enamide]
0.0666 | COc1cc(C(=O)N2[C@H]3CC[C@@H]2[C@H](N)C3)cc2nc(-c3cc4ccc([C@@H](C)NC(=O)C5C(C)(C)C5(F)F)nc4n3CC3CC3)c(C)n12 (stereo partly shown) [Example 103, ~{N}-[(1~{R})-1-[2-[7-[(1~{R},2~{R},4~{S})-2-amino-7-azabicyclo[2.2.1]heptane-7-carbonyl]-5-methoxy-3-methylimidazo [1,2-a]pyridin-2-yl]-1-(cyclopropylmethyl)pyrrolo [2,3-b]pyridin-6-yl]ethyl]-2,2-difluoro-3,3-dimethylcyclopropane-1-carboxamide]
0.238 | COc1cc(C(=O)N2[C@H]3CC[C@@H]2[C@H](N)C3)cc2nc(-c3cc4ccc(N5c6ccccc6CCS5(=O)=O)nc4n3CC3CC3)c(C)n12 [Example 468, [(1~{R},2~{R},4~{S})-2-amino-7-azabicyclo [2.2.1]heptan-7-yl]-[2-[1-(cyclopropylmethyl)-6-(2,2-dioxo-3,4-dihydro-2$l^6,1-benzothiazin-1-yl)pyrrolo[2,3-b]pyridin-2-yl]-5-methoxy-3-methylimidazo[1,2-a]pyridin-7-yl]methanone]
0.112 | COc1cc(C(=O)N2[C@H]3CC[C@@H]2[C@H](N)C3)cc2nc(-c3cc4ccc([C@@H](C)NC(=O)c5ccn(C(F)F)n5)nc4n3CC3CC3)c(C)n12 [Example 81, ~{N}-[(1~{R})-1-[2-[7-[(1~{R},2~{R},4~{S})-2-amino-7-azabicyclo[2.2.1]heptane-7-carbonyl]-5-methoxy-3-methylimidazo [1,2-a]pyridin-2-yl]-1-(cyclopropylmethyl)pyrrolo [2,3-b]pyridin-6-yl]ethyl]-1-(difluoromethyl)pyrazole-3-carboxamide]
0.181 | COc1cc(C(=O)N2CCC[C@@H](N)[C@H]2C)cc2nc(-c3cc4ccc(N(C5CC5)S(C)(=O)=O)nc4n3CC3CC3)c(C)n12 [Example 479, ~{N}-[2-[7-[(2~{R}, 3~{R})-3-amino-2-methylpiperidine-1-carbonyl]-5-methoxy-3-methylimidazo[1,2-a]pyridin-2-yl]-1-(cyclopropylmethyl)pyrrolo [2,3-b]pyridin-6-yl]-~{N}-cyclopropylmethane-sulfonamide]
0.0453 | COCC1(C(=O)N[C@H](C)c2ccc3cc(-c4nc5cc(C(=O)N6[C@H]7CC[C@@H]6[C@H](N)C7)cc(OC)n5c4C)n(CC4CC4)c3n2)CC1 [Example 68, ~{N}-[(1~{R})-1-[2-[7-[(1~{R},2~{R},4~{S})-2-amino-7-azabicyclo [2.2.1]heptane-7-carbonyl]-5-methoxy-3-methylimidazo [1,2-a]pyridin-2-yl]-1-(cyclopropylmethyl)pyrrolo[2,3-b]pyridin-6-yl]ethyl]-1-(methoxymethyl) cyclopropane-1-carboxamide]
0.369 | COc1cc(C(=O)N2C[C@H](N)C[C@@H](F)C2)cc2nc(-c3cc4ccc([C@@H](C)NC(=O)C56CC(F)(C5)C6)nc4n3CC3CC3)c(C)n12 [Example 36, ~{N}-[(1~{R})-1-[2-[7-[(3~{R}, 5~{R})-3-amino-5-fluoropiperidine-1-carbonyl]-5-methoxy-3-methylimidazo[1,2-a]pyridin-2-yl]-1-(cyclopropylmethyl)pyrrolo[2,3-b]pyridin-6-yl]ethyl]-3-fluorobicyclo[1.1.1] pentane-1-carboxamide]
0.532 | COc1cc(C(=O)N2CCC[C@@H](N)C2)cc2nc(-c3cc4ccc(C(C)n5cc(C#N)cn5)nc4n3CC3CC3)c(C)n12 (stereo partly shown) [Example 548, 1-[1-[2-[7-[(3~{R})-3-aminopiperidine-1-carbonyl]-5-methoxy-3-methylimidazo[1,2-a]pyridin-2-yl]-1-(cyclopropylmethyl)pyrrolo[2,3-b]pyridin-6-yl]ethyl] pyrazole-4-carbonitrile]
